This note sets out measurements from patent publication US12544365B2, “Pharmaceutical combination of an EP4 antagonist and immune checkpoint inhibitors for the treatment of tumours” (ROTTAPHARM BIOTECH S.R.L., priority 2019, dated 2026).

For this experiment, the target named is T1, rat EP4R (Rattus norvegicus, UniProt P43114).
T1 construct: whole blood culture samples from animals treated orally with vehicle or Compound 1; from tissue; host or cells: whole blood of male Wistar Han rats
Kind of experiment: Ex vivo TNF-α release induced by LPS in whole blood of orally dosed rats: PGE2 IC50 vs dose and time. The method, then:
Male Wistar Han rats (250-300 g b.w., Charles River, Italy) were housed six per cage in a temperature controlled room, set to maintain temperature within the range of 20° C. ±2° C. and relative humidity within the range of 55%+10 and with a 12-h/12-h light/dark cycle. Throughout the study animals had free access to standard laboratory chow (Teklad rodent diet 2018, Harlan Laboratories, S. Pietro al Natisone, UD, Italy) and drinking water. Care and handling of the animals were in accordance with the guidelines of the Local Government and the regulations of the European Community.
Authorization for experimental procedures was granted by the Italian Ministry of Health. […]
In details the day of the experiments, animals were anaesthetized with 2.5-3% isoflurane in O2 inside an induction chamber and blood (in average 7 ml/rat) was drawn from the abdominal aorta. […] Compared to the reference standard curve, TNF-α levels in samples were expressed as concentration (pg/ml).
For each animal, percent of inhibition by different PGE2 concentrations with respect to control sample, and the corresponding IC50 (or the half-maximal inhibitory concentration in a range 0-100% inhibition) were calculated by linear regression analysis. Moreover, in each treatment group either the mean TNF-α levels and the mean % inhibition by PGE2 were calculated. […]

T1 sequence (P43114 whole entry): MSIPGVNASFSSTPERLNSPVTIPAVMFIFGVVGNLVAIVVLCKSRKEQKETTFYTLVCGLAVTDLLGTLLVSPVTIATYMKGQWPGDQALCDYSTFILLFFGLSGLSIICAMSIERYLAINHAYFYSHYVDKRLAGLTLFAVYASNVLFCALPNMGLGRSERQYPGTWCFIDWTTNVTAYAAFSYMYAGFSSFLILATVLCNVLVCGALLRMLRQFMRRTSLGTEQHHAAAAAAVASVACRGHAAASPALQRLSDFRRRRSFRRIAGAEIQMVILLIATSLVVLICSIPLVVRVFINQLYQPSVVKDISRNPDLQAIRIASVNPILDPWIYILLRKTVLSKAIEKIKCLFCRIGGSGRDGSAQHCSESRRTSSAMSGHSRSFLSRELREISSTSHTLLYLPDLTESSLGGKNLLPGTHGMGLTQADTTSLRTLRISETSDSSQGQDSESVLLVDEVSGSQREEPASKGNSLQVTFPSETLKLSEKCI

Turning to `O=C([O-])c1ccc(C2(NC(=O)[C@H]3CC4(CCN3Cc3ccc(C(F)(F)F)cc3)CC4)CC2)cc1.[Na+]` [Compound 1, sodium (R)-4-(1-(6-(4-(trifluoromethyl)benzyl)-6-azaspiro[2.5]octane-5-carboxamido)cyclopropyl)benzoate], the “reversion of PGE2 TNF-α release inhibition, time course” value (10 mg/kg oral, blood sampling 1-3-24 hours) is on record as “still evident also 24 hours after Compound 1 administration”. The minimum effective dose (oral, rat, reversion of PGE2 inhibition of TNF-α release) was 10 mg/kg.
